Assay results as given in PMC1177995 (Virology Journal, 2005).
Where a SMILES comes first, the peptide text is derived from it.

Assays:
DENV strain New Guinea-2 = format: cell-based, dengue virus
WNV strain Egypt 101 = format: cell-based, West Nile virus; conditions: 100 μg/ml, compared to the original peptide

For `CC[C@H](C)[C@H](NC(=O)[C@H](C)NC(=O)CNC(=O)[C@H](Cc1ccccc1)NC(=O)[C@@H](NC(=O)[C@H](CCC(N)=O)NC(=O)[C@H](Cc1c[nH]cn1)NC(=O)[C@H](CC(C)C)NC(=O)[C@H](C)NC(=O)[C@H](CCCCN)NC(=O)CNC(=O)[C@@H](NC(=O)[C@H](CO)NC(=O)[C@@H](NC(=O)[C@H](Cc1ccccc1)NC(=O)[C@@H](NC(=O)CNC(=O)CNC(=O)[C@H](CC(C)C)NC(=O)[C@H](CO)NC(=O)CNC(=O)[C@H](Cc1ccccc1)NC(=O)[C@H](CC(=O)O)NC(=O)[C@H](Cc1c[nH]c2ccccc12)NC(=O)[C@H](C)NC(=O)[C@@H](NC(=O)[C@H](CC(=O)O)NC(=O)CNC(=O)[C@H](CC(C)C)NC(=O)[C@@H](NC(=O)[C@H](C)NC(=O)[C@@H](N)CCSC)[C@@H](C)CC)[C@@H](C)O)C(C)C)[C@@H](C)O)[C@@H](C)CC)C(C)C)C(=O)N[C@@H](Cc1ccc(O)cc1)C(=O)O` [DN59] (H-MAILGDTAWDFGSLGGVFTSIGKALHQVFGAIY-OH), the “maximum inhibitory activity against DENV” value (DENV strain New Guinea-2; at 20 μM, dose-response, mean +/- SD, triplicate) was 100.0 +/- 0.5%.

With VATWHLDWSREFPLFLMNS [Scrambled WN83] the “inhibitory effect of scrambled peptide against WNV” value (WNV strain Egypt 101) was “no inhibitory activity”.

“YFIDTSGAIWGASHLTGVLFDFMGIQGGAVLAK [Scrambled DN59]” was tested, and the “inhibitory effect of scrambled peptide against DENV” value (DENV strain New Guinea-2; 100 μg/ml, compared to the original peptide) was “no inhibitory activity”.
